The assay has as its system T1, Pseudomonas aeruginosa PAO1.
T1 construct: PAO1
Kind of assay: microbe, parasite or virus in culture. Also noted: broth microdilution MIC in cation-adjusted Mueller-Hinton broth, visual growth or resazurin. Particulars: PAO1, 20 h, read-out: MIC PAO1. How it is done:
Analysis of antimicrobial susceptibilities. […] The BMD method was performed on cation adjusted MH broth (CAMHB) as recommended 41, 42 . Bacteria were first grown overnight in CAMHB using CLSI-recommended incubation conditions and the antibiotics were serially diluted twofold across the 96 well plates. After that, 100 µl of a bacterial suspension diluted to 5x10^5 CFU/ml in CAMHB was added to the wells containing the antibiotic dilutions. The 96-well plates were incubated for 20 h at 37°C before developing by visual inspection or with the resazurin dye 43 . MIC was defined as the lowest concentration of the antibiotic (in μg/ml) that prevented visual growth. As the LESB58 isolate is considered a slower growing strain compared to laboratory strain PAO1 44, incubation for bacterial growth was extended to 48 h instead of 24 h for some protocols. […] For Etest a 0.5 McFarland suspension was used to create a confluent lawn of microbial growth in 150-mm Mueller-Hinton (MH) agar plates. The MIC values were determined according to the Etest reading guide after 18 h incubation at 37°C. MICs were determined as the concentration at which the zone of inhibition intersected the Etest strip.

We go through 13 molecules from PMC8035174, “The Pseudomonas aeruginosa substrate-binding protein Ttg2D functions as a general glycerophospholipid transporter across the periplasm” (Communications Biology, 2021).

In brackets after ≈: the same amount, converted by molar mass.

Consider `NCC[C@H](O)C(=O)N[C@@H]1C[C@H](N)[C@@H](O[C@H]2O[C@H](CN)[C@@H](O)[C@H](O)[C@H]2O)[C@H](O)[C@H]1O[C@H]1O[C@H](CO)[C@@H](O)[C@H](N)[C@H]1O` [Amikacin], for which the MIC amounted to 2 µg/mL (≈ 3.42 µM).
As for `CC(C)(O/N=C(\C(=O)N[C@@H]1C(=O)N2C(C(=O)[O-])=C(C[n+]3ccccc3)CS[C@H]12)c1csc(N)n1)C(=O)O` [Ceftazidime], the figure is 1 µg/mL (≈ 1.83 µM).
The result for `O=C(N[C@H](CO)[C@H](O)c1ccc([N+](=O)[O-])cc1)C(Cl)Cl` [Chloramphenicol] reads more than 256 µg/mL; that for `C[C@@H](O)[C@H]1C(=O)N2C(C(=O)O)=C(SCCNC=N)C[C@H]12` [Imipenem], 4 µg/mL (≈ 13.4 µM); that for `C[C@H]1COc2c(N3CCN(C)CC3)c(F)cc3c(=O)c(C(=O)O)cn1c23` [Levofloxacin], 4 µg/mL (≈ 11.1 µM).
The result for `C[C@@H](O)[C@H]1C(=O)N2C(C(=O)O)=C(S[C@@H]3CN[C@H](C(=O)N(C)C)C3)[C@H](C)[C@H]12` [Meropenem] reads 1 µg/mL (≈ 2.61 µM); that for `CN(C)c1ccc(O)c2c1C[C@H]1C[C@H]3[C@H](N(C)C)C(O)=C(C(N)=O)C(=O)[C@@]3(O)C(O)=C1C2=O` [Minocycline], 32 µg/mL (≈ 69.9 µM); that for `CCn1cc(C(=O)O)c(=O)c2cc(F)c(N3CCNCC3)cc21` [Norfloxacin], 4 µg/mL (≈ 12.5 µM).
As to `CC1COc2c(N3CCN(C)CC3)c(F)cc3c(=O)c(C(=O)O)cn1c23` (stereo not shown) [Ofloxacin], the MIC was found to be 8 µg/mL (≈ 22.1 µM).
As for `CCN1CCN(C(=O)N[C@@H](C(=O)N[C@@H]2C(=O)N3[C@@H]2SC(C)(C)[C@@H]3C(=O)O)c2ccccc2)C(=O)C1=O` [Piperacillin], the figure is 2 µg/mL (≈ 3.86 µM); as for `CN[C@@H]1[C@H](O[C@H]2[C@H](O[C@H]3[C@H](O)[C@@H](O)[C@H](N=C(N)N)[C@@H](O)[C@@H]3N=C(N)N)O[C@@H](C)[C@]2(O)C=O)O[C@@H](CO)[C@H](O)[C@H]1O` [Streptomycin], 8 µg/mL (≈ 13.8 µM); as for `CC1(C)S[C@@H]2[C@H](NC(=O)[C@H](C(=O)O)c3ccsc3)C(=O)N2[C@H]1C(=O)O` [Ticarcillin], 16 µg/mL (≈ 41.6 µM).
Regarding `CN(C)c1cc(NC(=O)CNC(C)(C)C)c(O)c2c1C[C@H]1C[C@H]3[C@H](N(C)C)C(O)=C(C(N)=O)C(=O)[C@@]3(O)C(O)=C1C2=O` [Tigecycline], the MIC amounted to 32 µg/mL (≈ 54.6 µM).
